How the values were obtained:
PPARγ = molecular target: T1, PPARγ (UniProt P37231); experiment: PPARγ ligand binding assay utilizing [3H]-BRL 49653 as the radioligand; settings: concentration required to reduce specific binding by 50%
T1 construct: fused on or other part: GST tag fused to PPARgamma, used for capture on glutathione beads
T1 sequence (P37231 1-505): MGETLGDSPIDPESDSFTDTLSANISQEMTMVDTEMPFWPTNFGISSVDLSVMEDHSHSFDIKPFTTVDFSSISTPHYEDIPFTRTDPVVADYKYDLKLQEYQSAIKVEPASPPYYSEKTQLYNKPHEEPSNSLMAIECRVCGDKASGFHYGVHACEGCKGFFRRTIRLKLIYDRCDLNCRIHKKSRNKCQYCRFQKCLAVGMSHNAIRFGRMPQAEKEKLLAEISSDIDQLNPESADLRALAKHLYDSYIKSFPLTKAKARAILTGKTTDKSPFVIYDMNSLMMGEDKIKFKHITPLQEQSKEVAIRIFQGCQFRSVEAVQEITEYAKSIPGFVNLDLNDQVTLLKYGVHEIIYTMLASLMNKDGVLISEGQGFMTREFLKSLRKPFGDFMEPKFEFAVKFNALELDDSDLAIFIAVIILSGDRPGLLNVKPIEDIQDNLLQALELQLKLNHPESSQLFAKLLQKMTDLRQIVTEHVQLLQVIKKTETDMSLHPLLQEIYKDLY
Text: The compounds for use according to the present invention can be evaluated for modulation of the PPARγ receptor using assays such as those described in Jiang, et al., Nature 391:82-86 (1998), Ricote, et al., Nature 391:79-82 (1998) and Lehmann, et al., J. Biol. Chem. 270(12): 12953-12956 (1995). Alternatively, the compounds for use according to the invention can be evaluated for their ability to displace radiolabeled BRL 49653 from a PPARγ-GST fusion protein as follows:
PPAR-γ-GST fusion protein (prepared according to standard procedures), [^3H]-BRL 49653 having 50 Ci/mmol specific activity, Polyfiltronics Unifilter 350 filtration plate and glutathione-Sepharose® beads (from Pharmacia: washed twice with 10× binding buffer in which BSA and DTI can be left out).
Binding buffer (10 mM Tris-HCl, pH 8.0, 50 mM KCl, 10 mM DTT, 0.02% BSA and 0.01% NP-40) is added in 80 microliter amounts to the wells of the filtration plate. The test compound is then added in 10 microliters of DMSO. The PPARy-GST fusion protein and radiolabeled BRL compound are premixed in binding buffer containing 10 mM DTT and added in 10 microliter amounts to the wells of the plate to provide final concentrations of 1 μg/well of PPAR-γ-GST fusion protein and 10 nM [^3H]-BRL 49653 compound. The plate is incubated for 15 minutes. Glutathione-agarose bead is added in 50 μL of binding buffer, and the plate is vigorously shaken for one hour. The plate is washed four times with 200 μL/well of binding buffer (without BSA and DTT). The bottom of the plate is sealed and 200 μL/well of scintillation cocktail is added. The top of the plate is then sealed and the radioactivity is determined. Formulation and Administration of the Compounds (Compositions) for Use According to the Invention

KK-Ay mice = experiment: anti-diabetic efficacy in KK-Ay mice (change in serum glucose levels); format: in vivo; settings: 0.018% (30 mg/kg) dietary admixture in powdered diet, change in serum glucose levels compared to untreated control animals
Description: Selected compounds were administered to KK-Ay mice as a 0.018% (30 mg/kg) dietary admixture in powdered diet and evaluated for anti-diabetic efficacy as described (T. Shibata, K. Matsui, K. Nagao, H. Shinkai, F. Yonemori and K. Wakitani 1999; European Journal of Pharmacology 364:211-219). The change in serum glucose levels compared to untreated control animals is exemplified in Table 39.

Row | IC50 (PPARγ) | melting point | SMILES | KKAy Glucose (KK-Ay mice)
1 | < 10 µM | 82 to 84 °C | O=S(=O)(Nc1cc(Cl)c(Oc2nc3ccc(Cl)cc3s2)c(Cl)c1)c1ccc(C(F)(F)F)cc1Cl [Example 365, 2-Chloro-N-[3,5-dichloro-4-(6-chloro-benzothiazol-2-yloxy)-phenyl]-4-trifluoromethyl-benzenesulfonamide] | ++ ((++) glucose lowering >20%)
2 | < 1 µM | 225.1 °C | O=S(=O)(Nc1cc(Cl)c(Sc2cnc3ccccc3c2)c(Cl)c1)c1ccc(C(F)(F)F)cc1Cl [Example 87.3] | ++ ((++) glucose lowering >20%)

Source: patent US20050250820A1, “Therapeutic modulation of PPARgamma activity” (Amgen Inc., priority 2004, published 2005)
